Measured values from patent US12534729B2, “Uses of synthetic lethal partners for treatment of cancer” (Sanford Burnham Prebys Medical Discovery Institute, priority 2019, dated 2026).

Experiments:
ERK1/2 = assay: Immunoblotting of phosphorylated MEK1/2 and ERK1/2 (MAPK signaling); format: cell-based, human; settings: melanoma cells, 72 hr; gefitinib 1 μM, sunitinib 500 nM
Experimental: (§1) Immunoblotting: Total protein was extracted in Laemmli buffer, fractionated by SDS polyacrylamide gels and transferred to PVDF membranes (Millipore Sigma, MA, USA). After blocking with 5% non-fat dry milk (BD Biosciences, CA, USA), the membranes were incubated with primary antibodies overnight at 4° C. Afterwards, 2 hr incubation with HRP-conjugated secondary antibodies was performed. Following chemiluminescence reaction, the protein signal was visualized using the ChemiDoc imaging system (Bio-Rad, Hercules, CA) according to the manufacturer's instructions.

[1] = tested on: KRASLSLG12D/+; p53R172H/+; PDXCretg/+ (KPC/B6) pancreatic tumors; format: in vivo; settings: same regimen
Experimental: (§2) In Vivo Studies: All animal studies were conducted in the SBP Medical Discovery Institute Animal Facility in accordance with the Institutional Animal Care and Use Committee guidelines. 8-week-old males C57BL/6 mice were purchased from Jackson laboratories (Bar Harbor, ME) and allowed to acclimatize for 1 week. KRAS^LSLG12D/+. p53^R172H/+; PDX^Cretg/+ (KPC/B6) pancreatic cancer cells (1×10^6, suspended in 30 μl sterile PBS) were orthotopically injected into head of the pancreas. After one week, mice were randomized and sorted into treatment groups (n=8 animal/group). L-A′ase (60 IU/animal) was administered daily for five times a week for 3 weeks intraperitoneally. MEK inhibitor PD-325901 (4 mg/kg) in 0.5% (w/v) hydroxy-propyl-methylcellulose, 0.2% (v/v) Tween 80 (Sigma) was administered by oral gavage twice a week for 3 weeks. For in vivo melanoma study, 8-week-old male C57BL/6 mice were injected subcutaneously in the flank with 2×10^5 MaNRAS1 (1007) cells. When tumors reached ˜250 mm^3, mice were randomized and sorted into treatment groups (n=8 animal/group).
(§3) Mice were maintained in a pathogen-free environment with free access to food. Tumor volume was measured blinded twice a week. Tumor volume was measured with linear calipers and calculated using the formula: ([length in millimeters x (width in millimeters)2]/2). […]

[2] = tested on: MaNRAS1 (1007) mouse melanoma cells; assay: Subcutaneous MaNRAS1 (1007) NRAS mutant melanoma model; format: in vivo, C57BL/6 mice; settings: L-A′ase and PD-325901 dosed as in pancreatic study
Experimental: as §2, §3

ATF4 = assay: Immunoblotting/qRT-PCR of ATF4 induction (GCN2-ATF4 axis) after ASNS knockdown; format: cell-based, human; settings: for ATF4 induction following ASNS knockdown (immunoblot): melanoma cells, 72 hr, ISRIB 200 nM, eFT508 100 nM, sunitinib 500 nM
Experimental: as §1
qPCR Analysis: 1×10^5 cells were seeded O/N per well in 6-well plates. Following treatment for 48 hr, total RNA was extracted using RNeasy Mini Kit (Qiagen, Hilden, Germany). cDNA was synthesized using oligo(dT) and random primers (AB Bioscience, MA, USA), and qPCR analysis was performed with SYBR Green (Roche, NJ, USA). Primers were designed using the PrimerQuest tool (Integrated DNA Technologies, CA, USA) and Primer Bank Actin was used as an internal control.

[3] = tested on: A375 and UACC-903 melanoma cells; assay: Cell proliferation (cell count) of melanoma lines; format: cell-based, human; settings: PLX-4032 250 nM; for cell proliferation in combination with ASNS knockdown (si-ASNS): melanoma cells, ISRIB 200 nM
Experimental: siRNA Transfection: 1×10^5 cells were seeded overnight (O/N) per well in 6-well plates. Negative control (NT-siRNA) or si-RNA targeting the transcript of interest was transfected utilizing jetPRIME® transfection reagent, as per manufacturer's instructions (Polyplus, NY, USA). Following siRNAs were used: si-ASNS #1 (SASI_Hs02_00332309), si-ASNS #2 (SASI_Hs01_00116721), si-ASNS #3 (SASI_Hs01_00116722), si-ATF4 (SASI_Hs02_00332313), si-eIF4E (SASI_Hs01_00216117), si-BRAF (SASI_Hs01_00107705), si-GCN2 (SASI_Hs01_00097888), si-MNK #1 (SASI_Hs01_00228422), si-MNK1 #2 (SASI_Hs01_00228423), si-MNK1 #3 (SASI_Hs01_00228424), and the negative control si-RNA (NT-siRNA; SIC001) were purchased from Sigma-Aldrich.
Cell Proliferation: For cell proliferation, 0.3-0.5×10^5 cells were seeded O/N in triplicate in 6-well plate. Following treatment for the specified duration, cells were trypsinized and the cell count was determined with Neubauer hemocytometer (Celeromics, Cambridge, UK).

ATF4 mRNA in A375 cells = assay: Polysome profiling of ATF4 mRNA translation; format: cell-based, human; settings: si-ASNS plus PLX-4032 500 nM, 48 hr
Experimental: Polysome Profiling: Polysome profiling was performed as described previously (Gandin et al., 2014). A375 cells were seeded at 30% confluency in a 15-cm Petri dish and transfected with NT-siRNA, si-ASNS, si-MNK1 (#1), or si-ASNS+si-MNK1 for 16 hr, using JetPrime transfection reagent (Polyplus) as per manufacturer's instruction. Post-transfection, cells were replenished with fresh media containing vehicle (DMSO) or 500 nM PLX-4032 (Selleckchem) for 48 hr treatment. […] Optical density values at 260 nm (OD260) were measured in each lysate and OD260 of ˜5 were then loaded in 5-50% sucrose gradients generated using Gradient Master (Biocomp, Fredericton, NB). […] Sucrose gradients were subjected to ultracentrifugation (SW41 Ti 11E1698 rotor; Beckman 39,000 RPM for 2 hr at 4° C.) and fractionated by displacement using 60% sucrose/0.01% bromophenol blue, on ISCO Foxy fraction collector (35 sec for each fraction ˜750 μL per fraction) equipped with an ultraviolet lamp for continuous absorbance monitoring at 254 nm. […] Relative change in the transcript levels in different pools was determined by the 2-ΔΔCT method, and shown as fold-change relative to mock-treated cells. β-Actin was used as an internal control.

## COc1cc2ncnc(Nc3ccc(F)c(Cl)c3)c2cc1OCCCN1CCOCC1 [gefitinib]
ERK1/2
  MEK1/2 and ERK1/2 phosphorylation under ASNS knockdown: did not alter ERK1/2 activation under ASNS knockdown conditions

## O=C(NOC[C@H](O)CO)c1ccc(F)c(F)c1Nc1ccc(I)cc1F [PD-325901]
[1]
  apoptosis (cleaved caspase-3): did not result in a significant increase in apoptosis
[2]
  tumor growth (volume): only modest anti-tumor activity

## CCC(=O)N1CCN(c2ccc(-n3c(=O)ccc4cnc5ccc(-c6cnc7ccccc7c6)cc5c43)cc2C(F)(F)F)CC1 [torin 1]
ATF4; melanoma and pancreatic cancer cell lines, rapamycin 100 nM, Torin 1 100 nM
  ATF4 induction and upregulation of ATF4 targets following ASNS knockdown: blocked both ATF4 induction and upregulation of ATF4 targets seen following ASNS knockdown

## CCCS(=O)(=O)Nc1ccc(F)c(C(=O)c2c[nH]c3ncc(-c4ccc(Cl)cc4)cc23)c1F [PLX-4032]
[3]; BRAF mutant melanoma lines
  melanoma cell proliferation, drug alone: attenuated melanoma cell proliferation
[3]
  cell proliferation in combination with ASNS knockdown (si-ASNS): a more effective inhibition was seen upon its combination with ASNS knockdown
ATF4 mRNA in A375 cells
  translational efficiency of ATF4 mRNA (polysome distribution): attenuated increase in translational efficiency of ATF4 mRNA caused by ASNS depletion

## O=C(COc1ccc(Cl)cc1)NC1CCC(NC(=O)COc2ccc(Cl)cc2)CC1 (stereo not shown) [ISRIB]
[3]
  cell proliferation in combination with ASNS knockdown (si-ASNS): potentiated anti-proliferative effects of ASNS depletion in melanoma cells
ATF4
  ATF4 induction following ASNS knockdown (immunoblot): suppression of ATF4 induction

## Cc1cc(Nc2cc(N)ncn2)c(=O)n2c1C(=O)NC21CCCCC1 [eFT508]
ATF4
  ATF4 induction following ASNS knockdown (immunoblot): did not antagonize ATF4 induction in response to ASNS suppression
